What was measured:
[1] = tested on: Candida albicans ATCC 1031; assay: Growth inhibition test (DGHM, Essai 2, Tables A-C), 72 h at 37°C; non/A/B/C = without or with inactivating substances A, B, C; type: cell-based
Experimental: Un autre essai a été réalisé à partir des solutions suivantes : • 100 ml d'une solution à 0,1 % de digluconate de chlorhexidine (pH 6) et • 100 ml d'une solution à 0,1 % de Bardac 22®. […]
(§1) Les tests ont été réalisés conformément au protocole décrit dans le Chapitre I/2.1 et 2.2 de Richtlinien für die Prüfung und Bewertung chemischer Desinfektionsverfahren der DGHM, Stand 1.1., 1981).
Les Tableaux A, B et C illustrent respectivement l'activité bactéricide et fongicide d'une solution aqueuse à 0,1 % de digluconate de chlorhexidine, d'une solution aqueuse à 0,1 % de Bardac 22® et d'un mélange à part égale des deux composés. Les protocoles dont ces Tableaux illustrent les résultats comprennent une incubation de 72 heures à 37°C et l'utilisation, comme témoins, des substances inactivantes suivantes : A : Tween® 80 3 % + lécithine 0,3 % + cystéine 0,1 %; B : Tween® 80 3 % + saponine 3 % + cystéine 0,1 % + histidine 0,1 %; C : Tween® 80 3 % + lécithine 0,3 % + histidine 0,1 % + thiosulfate de sodium 0,5 %.
Dans ces Tableaux, le signe "+" indique une croissance et le signe "-" l'absence de croissance.

[2] = tested on: S. aureus ATCC 6538; assay: Disinfection time test (Essai 2, Tables D-F), reaction at 22°, subcultures 72 h at 37°C; type: cell-based, Staphylococcus aureus
Experimental: (§2) Un autre essai a été réalisé à partir des solutions suivantes : • 100 ml d'une solution à 0,1 % de digluconate de chlorhexidine (pH 6) et • 100 ml d'une solution à 0,1 % de Bardac 22®.
as §1
(§3) Les tests dont les résultats sont illustrés aux Tableaux D, E et F ont été réalisés à une température de réaction de 22° avec une incubation des sous-cultures 72 heures à 37°C avec comme substances inactivantes : Tween® 80 3 % + saponine 3 % + cystéine 0,1 % + histidine 0,1 %; ces Tableaux illustrent respectivement l'activité bactéricide et fongicide d'une solution aqueuse à 0,1 % de digluconate de chlorhexidine, d'une solution aqueuse à 0,1 % de Bardac 22® et d'un mélange à part égale des deux composés et montrent l'action des antiseptiques précités, en fonction du temps de contact, et font apparaître la même synergie d'action de l'association que ci-dessus, dans la mesure où l'association des deux composés permet de diminuer significativement leur concentration, pour l'obtention d'un même effet. TABLEAU D

[3] = tested on: E. coli ATCC 11229; assay: as above; type: cell-based, Escherichia coli
Experimental: as §2, §1, §3

## [H]/N=C(\N/C(=N/[H])NCCCCCCNC(=N)NC(=N)Nc1ccc(Cl)cc1)Nc1ccc(Cl)cc1 [Chlorhexidine, digluconate de chlorhexidine, reference compound]
[1]; Conc. 0,1 % (vol/vol), A
  croissance: +
[1]; Conc. 0,1 % (vol/vol), B
  croissance: +
[1]; Conc. 0,1 % (vol/vol), C
  croissance: +
[1]; Conc. 0,1 % (vol/vol), non
  croissance: +
[1]; Conc. 0,05 % (vol/vol), A
  croissance: +
[1]; Conc. 0,5 % (vol/vol), A
  croissance: +
[1]; Conc. 0,05 % (vol/vol), B
  croissance: +
[1]; Conc. 0,5 % (vol/vol), B
  croissance: +
[1]; Conc. 0,05 % (vol/vol), C
  croissance: +
[1]; Conc. 0,5 % (vol/vol), C
  croissance: +
[1]; Conc. 0,05 % (vol/vol), non
  croissance: +
[1]; Conc. 0,5 % (vol/vol), non
  croissance: +
[1]; Conc. 1,0 % (vol/vol), A
  croissance: +
[1]; Conc. 1,0 % (vol/vol), B
  croissance: +
[1]; Conc. 1,0 % (vol/vol), C
  croissance: +
[1]; Conc. 1,0 % (vol/vol), non
  croissance: -
[1]; Conc. 0,00625 % (vol/vol), A
  croissance: +
[1]; Conc. 0,00625 % (vol/vol), B
  croissance: +
[1]; Conc. 0,00625 % (vol/vol), C
  croissance: +
[1]; Conc. 0,00625 % (vol/vol), non
  croissance: +
[1]; Conc. 0,0125 % (vol/vol), A
  croissance: +
[1]; Conc. 0,0125 % (vol/vol), B
  croissance: +
[1]; Conc. 0,0125 % (vol/vol), C
  croissance: +
[1]; Conc. 0,0125 % (vol/vol), non
  croissance: +
[1]; Conc. 0,025 % (vol/vol), A
  croissance: +
[1]; Conc. 0,025 % (vol/vol), B
  croissance: +
[1]; Conc. 0,025 % (vol/vol), C
  croissance: +
[1]; Conc. 0,025 % (vol/vol), non
  croissance: +
[1]; antiseptique seul
  concentration en substance active inhibant la croissance: 0,001%
[2]; Conc. 0,1 % (vol/vol), 1 min
  croissance: +
[2]; Conc. 0,1 % (vol/vol), 3 min
  croissance: +
[2]; Conc. 0,1 % (vol/vol), 5 min
  croissance: +
[2]; Conc. 0,1 % (vol/vol), 15 min
  croissance: +
[2]; Conc. 0,1 % (vol/vol), 30 min
  croissance: +
[2]; Conc. 0,1 % (vol/vol), 60 min
  croissance: +
[2]; Conc. 0,05 % (vol/vol), 1 min
  croissance: +
[2]; Conc. 0,5 % (vol/vol), 1 min
  croissance: +
[2]; Conc. 0,05 % (vol/vol), 3 min
  croissance: +
[2]; Conc. 0,5 % (vol/vol), 3 min
  croissance: +
[2]; Conc. 0,05 % (vol/vol), 5 min
  croissance: +
[2]; Conc. 0,5 % (vol/vol), 5 min
  croissance: +
[2]; Conc. 0,05 % (vol/vol), 15 min
  croissance: +
[2]; Conc. 0,5 % (vol/vol), 15 min
  croissance: +
[2]; Conc. 0,05 % (vol/vol), 30 min
  croissance: +
[2]; Conc. 0,5 % (vol/vol), 30 min
  croissance: +
[2]; Conc. 0,05 % (vol/vol), 60 min
  croissance: +
[2]; Conc. 0,5 % (vol/vol), 60 min
  croissance: +
[2]; Conc. 1 % (vol/vol), 1 min
  croissance: +
[2]; Conc. 1 % (vol/vol), 3 min
  croissance: +
[2]; Conc. 1 % (vol/vol), 5 min
  croissance: +
[2]; Conc. 1 % (vol/vol), 15 min
  croissance: +
[2]; Conc. 1 % (vol/vol), 30 min
  croissance: +
[2]; Conc. 1 % (vol/vol), 60 min
  croissance: +
[2]; Conc. 5 % (vol/vol), 1 min
  croissance: +
[2]; Conc. 5 % (vol/vol), 3 min
  croissance: +
[2]; Conc. 5 % (vol/vol), 5 min
  croissance: +
[2]; Conc. 5 % (vol/vol), 15 min
  croissance: +
[2]; Conc. 5 % (vol/vol), 30 min
  croissance: +
[2]; Conc. 5 % (vol/vol), 60 min
  croissance: +
[2]; Conc. 10 % (vol/vol), 1 min
  croissance: +
[2]; Conc. 10 % (vol/vol), 3 min
  croissance: +
[2]; Conc. 10 % (vol/vol), 5 min
  croissance: +
[2]; Conc. 10 % (vol/vol), 15 min
  croissance: +
[2]; Conc. 10 % (vol/vol), 30 min
  croissance: +
[2]; Conc. 10 % (vol/vol), 60 min
  croissance: -
[2]; Conc. 25 % (vol/vol), 1 min
  croissance: +
[2]; Conc. 25 % (vol/vol), 3 min
  croissance: +
[2]; Conc. 25 % (vol/vol), 5 min
  croissance: +
[2]; Conc. 25 % (vol/vol), 15 min
  croissance: +
[2]; Conc. 25 % (vol/vol), 30 min
  croissance: -
[2]; Conc. 25 % (vol/vol), 60 min
  croissance: -
[3]; Conc. 0,1 % (vol/vol), 1 min
  croissance: +
[3]; Conc. 0,1 % (vol/vol), 3 min
  croissance: +
[3]; Conc. 0,1 % (vol/vol), 5 min
  croissance: +
[3]; Conc. 0,1 % (vol/vol), 15 min
  croissance: +
[3]; Conc. 0,1 % (vol/vol), 30 min
  croissance: +
[3]; Conc. 0,1 % (vol/vol), 60 min
  croissance: +
[3]; Conc. 0,05 % (vol/vol), 1 min
  croissance: +
[3]; Conc. 0,5 % (vol/vol), 1 min
  croissance: +
[3]; Conc. 0,05 % (vol/vol), 3 min
  croissance: +
[3]; Conc. 0,5 % (vol/vol), 3 min
  croissance: +
[3]; Conc. 0,05 % (vol/vol), 5 min
  croissance: +
[3]; Conc. 0,5 % (vol/vol), 5 min
  croissance: +
[3]; Conc. 0,05 % (vol/vol), 15 min
  croissance: +
[3]; Conc. 0,5 % (vol/vol), 15 min
  croissance: +
[3]; Conc. 0,05 % (vol/vol), 30 min
  croissance: +
[3]; Conc. 0,5 % (vol/vol), 30 min
  croissance: +
[3]; Conc. 0,05 % (vol/vol), 60 min
  croissance: +
[3]; Conc. 0,5 % (vol/vol), 60 min
  croissance: +
[3]; Conc. 1 % (vol/vol), 1 min
  croissance: +
[3]; Conc. 1 % (vol/vol), 3 min
  croissance: +
[3]; Conc. 1 % (vol/vol), 5 min
  croissance: +
[3]; Conc. 1 % (vol/vol), 15 min
  croissance: +
[3]; Conc. 1 % (vol/vol), 30 min
  croissance: +
[3]; Conc. 1 % (vol/vol), 60 min
  croissance: +
[3]; Conc. 5 % (vol/vol), 1 min
  croissance: +
[3]; Conc. 5 % (vol/vol), 3 min
  croissance: +
[3]; Conc. 5 % (vol/vol), 5 min
  croissance: +
[3]; Conc. 5 % (vol/vol), 15 min
  croissance: +
[3]; Conc. 5 % (vol/vol), 30 min
  croissance: -
[3]; Conc. 5 % (vol/vol), 60 min
  croissance: -
[3]; Conc. 10 % (vol/vol), 1 min
  croissance: +
[3]; Conc. 10 % (vol/vol), 3 min
  croissance: +
[3]; Conc. 10 % (vol/vol), 5 min
  croissance: +
[3]; Conc. 10 % (vol/vol), 15 min
  croissance: -
[3]; Conc. 10 % (vol/vol), 30 min
  croissance: -
[3]; Conc. 10 % (vol/vol), 60 min
  croissance: -
[3]; Conc. 25 % (vol/vol), 1 min
  croissance: +
[3]; Conc. 25 % (vol/vol), 3 min
  croissance: +
[3]; Conc. 25 % (vol/vol), 5 min
  croissance: +
[3]; Conc. 25 % (vol/vol), 15 min
  croissance: -
[3]; Conc. 25 % (vol/vol), 30 min
  croissance: -
[3]; Conc. 25 % (vol/vol), 60 min
  croissance: -
